Experiments:
Format in all cases: in vivo
[1] = tested on: blackgrass (Alopecurus myosuroides); assay: Test B postemergence plant response
In short: (§1)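 Injury was assessed visually about 10 days after treatment, scored from 0 (no effect) to 100 (complete control) by comparison with untreated controls. Test chemicals had been applied postemergence to potted plants at the one- to two-leaf stage, grown in loam soil and sand in a greenhouse.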

[2] = tested on: galium (catchweed bedstraw, Galium aparine); assay: Test B postemergence plant response
In short: as §1

[3] = tested on: Italian ryegrass (Lolium multiflorum); assay: Test D pre-/postemergence plant response
In short: (§2)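 Greenhouse herbicidal response, both pre- and postemergence applications, with solvent/surfactant formulation. Postemergence plants were at 1- to 4-leaf stage. Visual scores 0–100 relative to controls, taken 13 to 15 days later.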

[4] = tested on: barnyardgrass (Echinochloa crus-galli); assay: Test D pre-/postemergence plant response
In short: as §2

corn (Zea mays) = assay: Test D pre-/postemergence plant response
In short: as §2

[5] = tested on: giant foxtail (Setaria faberii); assay: Test D pre-/postemergence plant response
In short: as §2

[6] = tested on: morningglory (Ipomoea coccinea); assay: Test D pre-/postemergence plant response
In short: as §2

[7] = tested on: oilseed rape (Brassica napus); assay: Test D pre-/postemergence plant response
In short: as §2

[8] = tested on: pigweed (Amaranthus retroflexus); assay: Test D pre-/postemergence plant response
In short: as §2

[9] = tested on: ragweed (common ragweed, Ambrosia elatior); assay: Test D pre-/postemergence plant response
In short: as §2

soybean (Glycine max) = assay: Test D pre-/postemergence plant response
In short: as §2

[10] = tested on: waterhemp (common waterhemp, Amaranthus rudis); assay: Test D pre-/postemergence plant response
In short: as §2

[11] = tested on: yellow nutsedge (Cyperus esculentus); assay: Test D pre-/postemergence plant response
In short: as §2

[12] = tested on: chickweed (common chickweed, Stellaria media); assay: Test D postemergence plant response; conditions: for Chickweed plant response rating: scale 0 to 100 (0 no effect, 100 complete control); for Plant response rating, Chickweed: scale 0 to 100, 0 no effect, 100 complete control
In short: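 Plants grown in pots of peat moss–vermiculite medium with wetting agent and starter nutrients received postemergence applications of the formulated test chemicals at 2 to 18 cm height (1- to 4-leaf stage). After 13 to 15 days in a greenhouse, injury was scored visually against untreated controls, 0 (no effect) to 100 (complete control).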

[13] = 125 g ai/ha, postemergence, 0 to 100 scale, 0 no effect, 100 complete control
[14] = Postemergence, 500 g ai/ha, 0 to 100 scale (0 no effect, 100 complete control)
[15] = Postemergence, 31 g ai/ha, scale 0 to 100 (0 no effect, 100 complete control)
[16] = Preemergence, 4 g ai/ha, scale 0 to 100 (0 no effect, 100 complete control)
[17] = Preemergence, 8 g ai/ha, scale 0 to 100 (0 no effect, 100 complete control)
[18] = Preemergence, 16 g ai/ha, scale 0 to 100 (0 no effect, 100 complete control)
[19] = Preemergence, 31 g ai/ha, scale 0 to 100 (0 no effect, 100 complete control)
[20] = Postemergence, 16 g ai/ha, scale 0 to 100 (0 no effect, 100 complete control)
[21] = Postemergence, 31 g ai/ha, 0 to 100 scale (0 no effect, 100 complete control)
[22] = Postemergence, 62 g ai/ha, scale 0 to 100, 0 no effect, 100 complete control
[23] = Postemergence, 125 g ai/ha, scale 0 to 100, 0 no effect, 100 complete control

## N#Cc1cccc(Oc2ncc(Cl)cn2)c1-c1cc(C(F)(F)F)on1 [Compound 157]
[1]; [13]
  Plant response rating, Blackgrass: 70
[1]; [14]
  Plant response rating, Blackgrass: 90
[2]; [13]
  Plant response rating, Galium: 100
[2]; [14]
  Plant response rating, Galium: 100
[3]; Postemergence, 4 g ai/ha
  Plant response rating (scale 0 to 100), Ryegrass, Italian: 0
[3]; Postemergence, 8 g ai/ha
  Plant response rating (scale 0 to 100), Ryegrass, Italian: 0
[3]; [15]
  Ryegrass, Italian plant response rating: 5
[3]; [16]
  Plant response rating, Ryegrass, Italian: 0
[3]; [17]
  Plant response rating, Ryegrass, Italian: 0
[3]; [18]
  Plant response rating, Ryegrass, Italian: 0
[3]; [19]
  Plant response rating, Ryegrass, Italian: 5
[4]; Postemergence, 4 g ai/ha
  Plant response rating (scale 0 to 100), Barnyardgrass: 0
[4]; Postemergence, 8 g ai/ha
  Plant response rating (scale 0 to 100), Barnyardgrass: 0
[4]; [20]
  Barnyardgrass plant response rating: 5
[4]; [15]
  Barnyardgrass plant response rating: 5
[4]; [16]
  Plant response rating, Barnyardgrass: 0
[4]; [17]
  Plant response rating, Barnyardgrass: 0
[4]; [18]
  Plant response rating, Barnyardgrass: 0
[4]; [19]
  Plant response rating, Barnyardgrass: 5
Corn (Zea mays); Postemergence, 4 g ai/ha
  Plant response rating (scale 0 to 100), Corn: 0
Corn (Zea mays); Postemergence, 8 g ai/ha
  Plant response rating (scale 0 to 100), Corn: 0
Corn (Zea mays); [20]
  Corn plant response rating: 5
Corn (Zea mays); [15]
  Corn plant response rating: 5
Corn (Zea mays); [16]
  Plant response rating, Corn: 0
Corn (Zea mays); [17]
  Plant response rating, Corn: 0
Corn (Zea mays); [18]
  Plant response rating, Corn: 5
Corn (Zea mays); [19]
  Plant response rating, Corn: 0
[5]; Postemergence, 4 g ai/ha
  Plant response rating (scale 0 to 100), Foxtail, Giant: 0
[5]; Postemergence, 8 g ai/ha
  Plant response rating (scale 0 to 100), Foxtail, Giant: 20
[5]; [20]
  Foxtail, Giant plant response rating: 40
[5]; [15]
  Foxtail, Giant plant response rating: 20
[5]; [16]
  Plant response rating, Foxtail, Giant: 0
[5]; [17]
  Plant response rating, Foxtail, Giant: 0
[5]; [18]
  Plant response rating, Foxtail, Giant: 0
[5]; [19]
  Plant response rating, Foxtail, Giant: 20
[6]; Postemergence, 4 g ai/ha
  Plant response rating (scale 0 to 100), Morningglory: 0
[6]; Postemergence, 8 g ai/ha
  Plant response rating (scale 0 to 100), Morningglory: 5
[6]; [15]
  Morningglory plant response rating: 35
[6]; [16]
  Plant response rating, Morningglory: 0
[6]; [17]
  Plant response rating, Morningglory: 0
[6]; [18]
  Plant response rating, Morningglory: 0
[6]; [19]
  Plant response rating, Morningglory: 10
[7]; Postemergence, 4 g ai/ha
  Plant response rating (scale 0 to 100), Oilseed Rape: 0
[7]; Postemergence, 8 g ai/ha
  Plant response rating (scale 0 to 100), Oilseed Rape: 5
[7]; [15]
  Oilseed Rape plant response rating: 25
[7]; [16]
  Plant response rating, Oilseed Rape: 0
[7]; [17]
  Plant response rating, Oilseed Rape: 0
[7]; [18]
  Plant response rating, Oilseed Rape: 40
[7]; [19]
  Plant response rating, Oilseed Rape: 100
[8]; Postemergence, 4 g ai/ha
  Plant response rating (scale 0 to 100), Pigweed: 35
[8]; Postemergence, 8 g ai/ha
  Plant response rating (scale 0 to 100), Pigweed: 70
[8]; [15]
  Pigweed plant response rating: 65
[8]; [16]
  Plant response rating, Pigweed: 20
[8]; [17]
  Plant response rating, Pigweed: 100
[8]; [18]
  Plant response rating, Pigweed: 100
[8]; [19]
  Plant response rating, Pigweed: 100
[9]; Postemergence, 4 g ai/ha
  Plant response rating (scale 0 to 100), Ragweed: 50
[9]; Postemergence, 8 g ai/ha
  Plant response rating (scale 0 to 100), Ragweed: 15
[9]; [15]
  Ragweed plant response rating: 25
[9]; [16]
  Plant response rating, Ragweed: 0
[9]; [17]
  Plant response rating, Ragweed: 0
[9]; [18]
  Plant response rating, Ragweed: 0
[9]; [19]
  Plant response rating, Ragweed: 0
Soybean (Glycine max); Postemergence, 4 g ai/ha
  Plant response rating (scale 0 to 100), Soybean: 5
Soybean (Glycine max); Postemergence, 8 g ai/ha
  Plant response rating (scale 0 to 100), Soybean: 10
Soybean (Glycine max); [15]
  Soybean plant response rating: 35
Soybean (Glycine max); [16]
  Plant response rating, Soybean: 0
Soybean (Glycine max); [17]
  Plant response rating, Soybean: 0
Soybean (Glycine max); [18]
  Plant response rating, Soybean: 0
Soybean (Glycine max); [19]
  Plant response rating, Soybean: 50
[10]; Postemergence, 4 g ai/ha
  Plant response rating (scale 0 to 100), Waterhemp: 20
[10]; Postemergence, 8 g ai/ha
  Plant response rating (scale 0 to 100), Waterhemp: 55
[10]; [15]
  Waterhemp plant response rating: 75
[10]; [16]
  Plant response rating, Waterhemp: 0
[10]; [17]
  Plant response rating, Waterhemp: 70
[10]; [18]
  Plant response rating, Waterhemp: 100
[10]; [19]
  Plant response rating, Waterhemp: 100
[11]; Postemergence, 4 g ai/ha
  Plant response rating (scale 0 to 100), Nutsedge, Yellow: 0
[11]; Postemergence, 8 g ai/ha
  Plant response rating (scale 0 to 100), Nutsedge, Yellow: 5
[11]; [15]
  Nutsedge, Yellow plant response rating: 10
[11]; [16]
  Plant response rating, Nutsedge, Yellow: 0
[11]; [17]
  Plant response rating, Nutsedge, Yellow: 0
[11]; [18]
  Plant response rating, Nutsedge, Yellow: 0
[11]; [19]
  Plant response rating, Nutsedge, Yellow: 0
[12]; 4 g ai/ha
  Plant response rating (scale 0 to 100), Chickweed: 5
[12]; 8 g ai/ha
  Plant response rating (scale 0 to 100), Chickweed: 10
[12]; 16 g ai/ha
  Chickweed plant response rating: 50
[12]; 31 g ai/ha
  Chickweed plant response rating: 75

## FC(F)(Br)c1cc(-c2ccccc2Oc2ncc(Cl)cn2)no1 [Compound 162]
[1]; [13]
  Plant response rating, Blackgrass: 30
[1]; [21]
  Plant response rating, Blackgrass: 30
[2]; [13]
  Plant response rating, Galium: 90
[2]; [21]
  Plant response rating, Galium: 90
[3]; [15]
  Ryegrass, Italian plant response rating: 0
[3]; [22]
  Plant response rating, Ryegrass, Italian: 5
[3]; [23]
  Plant response rating, Ryegrass, Italian: 5
[4]; [20]
  Barnyardgrass plant response rating: 5
[4]; [15]
  Barnyardgrass plant response rating: 10
[4]; [22]
  Plant response rating, Barnyardgrass: 15
[4]; [23]
  Plant response rating, Barnyardgrass: 15
Corn (Zea mays); [20]
  Corn plant response rating: 5
Corn (Zea mays); [15]
  Corn plant response rating: 5
Corn (Zea mays); [22]
  Plant response rating, Corn: 5
Corn (Zea mays); [23]
  Plant response rating, Corn: 5
[5]; [20]
  Foxtail, Giant plant response rating: 10
[5]; [15]
  Foxtail, Giant plant response rating: 10
[5]; [22]
  Plant response rating, Foxtail, Giant: 10
[5]; [23]
  Plant response rating, Foxtail, Giant: 20
[6]; [15]
  Morningglory plant response rating: 65
[6]; [22]
  Plant response rating, Morningglory: 75
[6]; [23]
  Plant response rating, Morningglory: 75
[7]; [15]
  Oilseed Rape plant response rating: 5
[7]; [22]
  Plant response rating, Oilseed Rape: 40
[8]; [15]
  Pigweed plant response rating: 90
[8]; [22]
  Plant response rating, Pigweed: 100
[8]; [23]
  Plant response rating, Pigweed: 100
[9]; [15]
  Ragweed plant response rating: 30
[9]; [22]
  Plant response rating, Ragweed: 40
[9]; [23]
  Plant response rating, Ragweed: 50
Soybean (Glycine max); [15]
  Soybean plant response rating: 10
Soybean (Glycine max); [22]
  Plant response rating, Soybean: 40
Soybean (Glycine max); [23]
  Plant response rating, Soybean: 50
[10]; [15]
  Waterhemp plant response rating: 98
[10]; [22]
  Plant response rating, Waterhemp: 100
[10]; [23]
  Plant response rating, Waterhemp: 100
[11]; [15]
  Nutsedge, Yellow plant response rating: 0
[11]; [22]
  Plant response rating, Nutsedge, Yellow: 5
[11]; [23]
  Plant response rating, Nutsedge, Yellow: 10
[12]; 16 g ai/ha
  Chickweed plant response rating: 50
[12]; 31 g ai/ha
  Chickweed plant response rating: 60
[12]; 62 g ai/ha
  Plant response rating, Chickweed: 60
[12]; 125 g ai/ha
  Plant response rating, Chickweed: 85

Source: US10131652B2, “Pyrimidinyloxy benzene derivatives as herbicides” (E. I. DU PONT DE NEMOURS AND COMPANY, priority 2014, dated 2018)
